{"source": "patent US8486991B2", "about": "“Enantiomerically pure phosphoindoles as HIV inhibitors” (Idenix Pharmaceuticals, Inc., priority 2006, dated 2013)", "key": {"[1]": {"test": "Compound depletion in hepatocytes, dog", "assay_type": "in vitro ADME", "conditions": "up to 2 hours, read-out: t½, Compound Depletion in Hepatocytes, Dog", "method": "(§1) Fresh hepatocytes were plated onto collagen-coated plates and exposed to test compounds at 1 μM for up to 2 hours. Tissue culture medium was assayed for compound depletion by LC/MS detection. Values in Table 23 represent independent experiments from 5 to 7 donors."}, "[2]": {"system": "HIV-1 BH10 K103N mutant virus", "test": "microbe, parasite or virus in culture", "assay_type": "cell-based", "conditions": "for EC50: unit inferred; for Fold Change, K103N: Table 7"}, "CYP2C8": {"biological_target": "T1, CYP2C8 (Homo sapiens, UniProt P10632)", "T1 sequence (P10632 1-490)": "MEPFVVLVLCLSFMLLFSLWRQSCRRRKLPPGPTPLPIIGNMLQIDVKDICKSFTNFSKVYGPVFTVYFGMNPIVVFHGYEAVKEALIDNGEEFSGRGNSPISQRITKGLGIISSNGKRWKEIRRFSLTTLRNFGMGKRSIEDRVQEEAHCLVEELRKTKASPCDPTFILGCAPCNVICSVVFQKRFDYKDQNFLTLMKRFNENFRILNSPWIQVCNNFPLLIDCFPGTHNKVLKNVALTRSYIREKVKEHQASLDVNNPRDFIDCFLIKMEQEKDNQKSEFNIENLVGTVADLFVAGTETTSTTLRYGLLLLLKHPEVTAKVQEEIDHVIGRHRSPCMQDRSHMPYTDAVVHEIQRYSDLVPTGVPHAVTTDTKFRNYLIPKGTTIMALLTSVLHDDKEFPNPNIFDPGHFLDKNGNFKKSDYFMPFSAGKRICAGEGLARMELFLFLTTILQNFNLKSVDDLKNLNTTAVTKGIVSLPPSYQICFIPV", "test": "Human liver microsomal CYP450 inhibition, CYP2C8", "conditions": "for Type of inhibition, CYP2C8 (Paclitaxel): human liver microsomes; for IC50: human, pooled human liver microsomes, probe paclitaxel", "procedure": "(§3) In addition, the type of inhibition was also evaluated.\n(§4) Enzyme kinetic studies of cytochrome P450 isozyme inhibition were conducted using human liver microsomes.\nProbe substrate for 2C8 was paclitaxel, probe substrate for 2C9 was diclofenac and for 3A4 probe substrates were midazolam and testosterone."}, "[3]": {"test": "Compound depletion in hepatocytes, monkey", "assay_type": "in vitro ADME", "conditions": "up to 2 hours, read-out: t½, Compound Depletion in Hepatocytes, Monkey", "method": "as §1"}, "CYP1A2": {"biological_target": "T2, CYP1A2 (Homo sapiens, UniProt P05177)", "T2 sequence (P05177 1-516)": "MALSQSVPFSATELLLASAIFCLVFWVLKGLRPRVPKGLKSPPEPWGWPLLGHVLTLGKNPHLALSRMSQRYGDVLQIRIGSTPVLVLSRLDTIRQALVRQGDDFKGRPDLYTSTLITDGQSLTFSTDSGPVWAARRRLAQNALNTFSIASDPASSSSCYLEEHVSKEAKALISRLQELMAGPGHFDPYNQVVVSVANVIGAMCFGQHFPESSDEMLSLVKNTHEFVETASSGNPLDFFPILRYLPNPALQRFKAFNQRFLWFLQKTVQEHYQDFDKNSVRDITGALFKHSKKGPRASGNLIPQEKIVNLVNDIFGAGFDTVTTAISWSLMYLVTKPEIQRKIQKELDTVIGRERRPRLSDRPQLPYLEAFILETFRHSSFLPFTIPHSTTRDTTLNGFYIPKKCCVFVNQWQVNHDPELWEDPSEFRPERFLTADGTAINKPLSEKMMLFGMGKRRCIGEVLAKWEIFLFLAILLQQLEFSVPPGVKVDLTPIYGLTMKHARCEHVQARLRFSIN", "test": "Human liver microsomal CYP450 inhibition, CYP1A2", "conditions": "for IC50, CYP1A2: human liver microsomes", "procedure": "as §3, §4"}, "[4]": {"test": "Plasma protein binding by equilibrium dialysis, dog", "assay_type": "in vitro ADME", "conditions": "for fraction unbound: dog, read-out: Percentage Plasma Protein Binding, Dogs", "method": "(§2) The in vitro plasma protein binding of compound I and compound III in rat, dog, monkey and human plasma was determined by equilibrium dialysis. Protein binding was assessed by equilibrium dialysis using rat, dog, monkey and human plasma. Samples were assayed by HPLC with LC-MS/MS detection. Plasma protein binding was high (>99%) for all species and for both compounds."}, "[5]": {"test": "In vivo pharmacokinetics, monkeys", "design": "species or system monkey", "conditions": "for bioavailability: read-out: BA (absolute oral bioavailability); for concentration at 24 h: 5 mg/kg oral dose, read-out: plasma concentrations at 24 hours post-dose", "method": "All animals received a single oral or intravenous dose of compound in either polyethylene glycol 400 (PEG400) or a mixture of 10% ethanol (EtOH), 10% dimethylacetamine (DMA) and 80% PEG400 at the indicated dose level. Plasma concentration data were acquired using sensitive and specific LC-MS/MS methods. Pharmacokinetic data from the toxicity study included aspects of gender differences, variability and exposure.\nBlood samples (1.5-2.5 mL) were collected in heparinized tubes at 0 (pre-dose), 5 (IV only), 10, 20, 30 min, 1, 2, 4, 6, 8, 12 (PO only) and 24 hr after dosing. Plasma was separated and stored at −70° C. until analysis.\nConcentrations of unlabeled compound I and compound III within plasma samples and excreta from rat, dog and monkey PK studies were identified through high performance liquid chromatographic (HPLC) methods that incorporated tandem mass spectrometric detection (LC-MS/MS).\nThe absolute oral bioavailability was determined in pharmacokinetic by comparison of AUC values of parent compound following single intravenous and oral doses of in rats (compound III only), dogs and monkeys."}, "CYP2D6": {"biological_target": "CYP2D6 (Homo sapiens, UniProt P10635)", "sequence (P10635 whole entry, the tested form may be a part)": "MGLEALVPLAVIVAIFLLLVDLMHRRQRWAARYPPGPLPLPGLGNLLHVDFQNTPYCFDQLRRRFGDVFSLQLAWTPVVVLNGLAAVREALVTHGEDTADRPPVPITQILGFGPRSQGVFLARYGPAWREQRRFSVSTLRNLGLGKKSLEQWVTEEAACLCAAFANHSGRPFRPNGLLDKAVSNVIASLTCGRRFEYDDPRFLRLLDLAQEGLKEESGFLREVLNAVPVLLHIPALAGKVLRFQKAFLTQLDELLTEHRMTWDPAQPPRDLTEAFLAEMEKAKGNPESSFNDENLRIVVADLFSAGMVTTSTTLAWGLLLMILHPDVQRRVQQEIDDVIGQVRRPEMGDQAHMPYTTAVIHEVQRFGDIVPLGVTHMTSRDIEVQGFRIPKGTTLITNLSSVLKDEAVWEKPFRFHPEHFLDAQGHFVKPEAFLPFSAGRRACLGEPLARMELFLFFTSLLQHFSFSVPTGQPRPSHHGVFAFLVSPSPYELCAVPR", "test": "Recombinant CYP450 inhibition, fluorometric, CYP2D6", "assay_type": "in vitro ADME", "design": "from tissue; host or cells: pooled human liver microsomes", "conditions": "read-out: percentage of inhibition at the highest concentration tested, CYP2D6", "method": "Compounds were assayed using recombinant human microsomal proteins with fluorometric substrates. Signal was measured with a Fusion plate reader utilizing the appropriate excitation and emission wavelength set to detect the specific metabolite: […]"}, "[6]": {"test": "Plasma protein binding by equilibrium dialysis, human", "assay_type": "in vitro ADME", "method": "as §2"}, "CYP2C9": {"biological_target": "CYP2C9 (Homo sapiens, UniProt P11712)", "sequence (P11712 whole entry, the tested form may be a part)": "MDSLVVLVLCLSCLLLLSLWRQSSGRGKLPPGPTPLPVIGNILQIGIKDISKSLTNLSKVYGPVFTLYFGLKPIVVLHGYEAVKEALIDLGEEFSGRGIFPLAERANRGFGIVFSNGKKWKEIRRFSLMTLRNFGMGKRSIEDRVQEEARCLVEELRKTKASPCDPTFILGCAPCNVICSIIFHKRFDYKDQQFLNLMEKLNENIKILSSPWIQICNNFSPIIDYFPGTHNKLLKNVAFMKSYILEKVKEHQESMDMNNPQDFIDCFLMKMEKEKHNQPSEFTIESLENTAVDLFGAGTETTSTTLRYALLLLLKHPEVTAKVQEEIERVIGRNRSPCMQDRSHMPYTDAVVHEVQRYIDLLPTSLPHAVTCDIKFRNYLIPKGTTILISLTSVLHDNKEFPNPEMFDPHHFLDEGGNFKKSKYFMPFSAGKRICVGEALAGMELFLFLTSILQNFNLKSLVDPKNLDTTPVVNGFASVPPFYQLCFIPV", "test": "Recombinant CYP450 inhibition, Luciferin-H, CYP2C9", "assay_type": "in vitro ADME", "design": "from tissue; host or cells: pooled human liver microsomes", "conditions": "highest concentration tested 10 μM", "method": "CYP2C9 inhibition was performed by incubating a luminogenic CYP450 substrate Luciferin-H with CYP2C9 and an NADPH regeneration system. Luminescence measured using a Fusion plate reader."}, "[7]": {"test": "In vitro half-life in liver microsomes, dog", "assay_type": "in vitro ADME", "conditions": "up to one hour, longer half-lives are extrapolated, n=1", "method": "In vitro metabolism was assessed using liver microsomes for all species. Compounds were incubated at 1 μM with liver microsomes for up to one hour. Reported half-lives greater than the total incubation time are extrapolated values. Extracts were assayed for disappearance of parent compound by LC-MS/MS detection.\nData represents one independent experiment conducted."}, "[8]": {"conditions": "fresh hepatocytes plated on collagen-coated plates"}}, "note": "Read-outs that look alike come from different tables or passages of the source.", "data": [{"compound": "CO[P@](=O)(c1cc(C)cc(/C=C/C#N)c1)c1c(C(N)=O)[nH]c2ccc(Cl)c(F)c12", "note": "[Compound I, (2-Carbamoyl-5-chloro-4-fluoro-1H-indol-3-yl)-[3-((E)-2-cyano-vinyl)-5-methyl-phenyl]-(R)-phosphinic acid methyl ester]", "values": [{"measurement": "half-life at 1 μM", "setting": "[1]; hepatocytes", "value": "0.467 ± 0.233", "unit": "h"}, {"measurement": "EC50", "setting": "[2]; Human immunodeficiency virus 1, MT4, read-out: EC50, K103N, Example 16 comparative tables", "value": "0.6 ± 0.2", "unit": "nM"}, {"measurement": "Fold Change, K103N", "setting": "[2]", "value": "0.9 ± 0.4", "unit": "fold"}, {"measurement": "EC50", "setting": "[2]; read-out: EC50, K103N, Example 16 comparative tables", "value": 0.9, "unit": "nM"}, {"measurement": "Ki", "setting": "CYP2C8", "value": 1.1, "unit": "µM"}, {"measurement": "Type of inhibition, CYP2C8 (Paclitaxel)", "setting": "CYP2C8", "value": "competitive inhibition"}, {"measurement": "Type of inhibition, CYP2C8 (Paclitaxel)", "setting": "CYP2C8; listed as compound I", "value": "competitive inhibition"}, {"measurement": "IC50", "setting": "CYP2C8", "value": "< 10", "unit": "µM"}, {"measurement": "half-life at 1 μM", "setting": "[3]; hepatocytes", "value": "1.05 ± 0.667", "unit": "h"}, {"measurement": "IC50", "setting": "CYP1A2", "value": "> 20", "unit": "µM"}, {"measurement": "IC50, CYP1A2", "setting": "CYP1A2", "value": "not observed"}, {"measurement": "Percentage Plasma Protein Binding, Dogs", "setting": "[4]", "value": 99.0, "unit": "%"}, {"measurement": "fraction unbound", "setting": "[4]; plasma", "value": "< 0.01"}, {"measurement": "bioavailability in males based on AUC values, excluding one animal", "setting": "[5]; Monkey, 5 mg/kg oral", "value": 75, "unit": "%"}, {"measurement": "Tmax", "setting": "[5]; female, monkey, in vivo, po, 5 mg/kg, 5 mg/kg PO-Fed, 3F, median", "value": 4, "unit": "h"}, {"measurement": "bioavailability", "setting": "[5]; female, monkey, in vivo, po, 5 mg/kg, Monkey, 5 mg/kg PO-Fed, 3F (females)", "value": 61, "unit": "%"}, {"measurement": "concentration at 24 h", "setting": "[5]; in vivo, monkey", "value": 17.9, "unit": "ng/mL"}, {"measurement": "Tmax", "setting": "[5]; male, monkey, in vivo, po, 5 mg/kg, 5 mg/kg PO-Fed, 3M, median", "value": 4, "unit": "h"}, {"measurement": "Tmax", "setting": "[5]; male, monkey, in vivo, po, 5 mg/kg, 5 mg/kg PO-Fed, males (3M or 2M), mean", "value": 2.7, "unit": "h"}, {"measurement": "bioavailability", "setting": "[5]; male, monkey, in vivo, po, 5 mg/kg, Monkey, 5 mg/kg PO-Fed, 3M (males)", "value": 54, "unit": "%"}, {"measurement": "bioavailability", "setting": "[5]; male, monkey, in vivo, po, 5 mg/kg, Monkey, 5 mg/kg PO-Fed, males (3M or 2M), exploratory study", "value": 58, "unit": "%"}, {"measurement": "inhibition at 10 µM", "setting": "CYP2D6; recombinant enzyme", "value": 11.2, "unit": "%"}, {"measurement": "Percentage Plasma Protein Binding, Humans", "setting": "[6]", "value": 99.8, "unit": "%"}, {"measurement": "IC50", "setting": "CYP2C9", "value": "8.4 ± 0.67", "unit": "µM"}, {"measurement": "half-life at 1 μM", "setting": "[7]; microsomes", "value": 0.322, "unit": "h"}]}, {"compound": "CO[P@](=O)(c1cc(C)cc(/C=C/C#N)c1)c1c(C(N)=O)[nH]c2ccc(Cl)cc12", "note": "[Compound III, (2-Carbamoyl-5-chloro-1H-indol-3-yl)-[3-((E)-2-cyano-vinyl)-5-methyl-phenyl]-(R)-phosphinic acid methyl ester]", "values": [{"measurement": "half-life at 1 μM", "setting": "[1]; [8]", "value": "0.35 ± 0.167", "unit": "h"}, {"measurement": "Fold Change, K103N", "setting": "[2]", "value": "1.2 ± 0.4", "unit": "fold"}, {"measurement": "Ki", "setting": "CYP2C8", "value": 0.66, "unit": "µM"}, {"measurement": "Type of inhibition, CYP2C8 (Paclitaxel)", "setting": "CYP2C8", "value": "competitive inhibition"}, {"measurement": "Type of inhibition, CYP2C8 (Paclitaxel)", "setting": "CYP2C8; listed as compound III", "value": "competitive inhibition"}, {"measurement": "IC50", "setting": "CYP2C8", "value": "< 10", "unit": "µM"}, {"measurement": "half-life at 1 μM", "setting": "[3]; [8]", "value": "0.867 ± 0.4", "unit": "h"}, {"measurement": "IC50", "setting": "CYP1A2", "value": "> 20", "unit": "µM"}, {"measurement": "IC50, CYP1A2", "setting": "CYP1A2", "value": "not observed"}, {"measurement": "Percentage Plasma Protein Binding, Dogs", "setting": "[4]", "value": 99.4, "unit": "%"}, {"measurement": "fraction unbound", "setting": "[4]; dog plasma", "value": "< 0.01"}, {"measurement": "Tmax", "setting": "[5]; female, monkey, plasma, po, 5 mg/kg, 5 mg/kg PO-Fed, 3F, median", "value": 2, "unit": "h"}, {"measurement": "bioavailability", "setting": "[5]; female, plasma, Monkey, 5 mg/kg PO-Fed, 3F (females)", "value": 76, "unit": "%"}, {"measurement": "Tmax", "setting": "[5]; male, monkey, plasma, po, 5 mg/kg, 5 mg/kg PO-Fed, 3M, median", "value": 2, "unit": "h"}, {"measurement": "Tmax", "setting": "[5]; male, monkey, plasma, po, 5 mg/kg, 5 mg/kg PO-Fed, males (3M or 2M), mean", "value": 3, "unit": "h"}, {"measurement": "Tmax", "setting": "[5]; male, monkey, plasma, po, 20 mg/kg, 20 mg/kg PO-Fed, 2M, mean", "value": 2.5, "unit": "h"}, {"measurement": "bioavailability", "setting": "[5]; male, plasma, Monkey, 5 mg/kg PO-Fed, 3M (males)", "value": 42, "unit": "%"}, {"measurement": "bioavailability", "setting": "[5]; male, plasma, Monkey, 20 mg/kg PO-Fed, 2M", "value": 61, "unit": "%"}, {"measurement": "concentration at 24 h", "setting": "[5]; plasma, monkey", "value": 12, "unit": "ng/mL"}, {"measurement": "inhibition at 10 µM", "setting": "CYP2D6; recombinant human CYP2D6 microsomal protein", "value": 15.2, "unit": "%"}, {"measurement": "Percentage Plasma Protein Binding, Humans", "setting": "[6]", "value": 99.9, "unit": "%"}, {"measurement": "IC50", "setting": "CYP2C9", "value": "6.85 ± 0.48", "unit": "µM"}, {"measurement": "half-life at 1 μM", "setting": "[7]; liver microsomes", "value": 0.22, "unit": "h"}]}]}
